In general, EC50 refers to the concentration that produces a half-maximal response. The low end stands for greater potency, the high end for weaker potency. For orientation: IC50 means the concentration needed to halve the response being measured. The low end stands for greater potency, the high end for weaker potency.

The results in this text go back to patent US11498896B2 (The Broad Institute, Inc., priority 2014, dated 2022).

Assay [1] addresses T1, human D2R/β-arrestin (Homo sapiens (Human), UniProt P14416). As to the kind of experiment: β-arrestin agonist assay (PathHunter). Format: cell-based. To be noted: CHO-K1 cells expressing human D2R/β-arrestin; agonist mode. As to the method: The detection reagent (9.6 μL, Buffer:Emerald II:Galactor-Star in a 19:5:1 ratio, i.e., 14.06 mL:3.7 mL:0.74 mL=18.5 mL) was then added to the agonist plates.

The target in assay [2] is T1, human D2R/β-arrestin. As to the kind of experiment: Gi/cAMP agonist assay (Lance Ultra cAMP, forskolin). The format is cell-based. The following applies: CHO-K1 cells expressing human D2R/β-arrestin; agonist mode, 2.5 μM forskolin. As to the method:
Eu-cAMP tracer solution (10 μl, PerkinElmer, 360 μl of Tracer in 17.64 ml kit buffer) and ULight-anti-cAMP solution (10 μl, 120 μL antibody in 17.88 ml kit buffer) was then added to each well.

Assay [3] has as its target T1, human D2R/β-arrestin. As to the kind of experiment: cell-based. The following applies: β-arrestin Antagonist.
Assay [4] concerns the target T1, human D2R/β-arrestin. As to the kind of experiment: cell-based. To be noted: cAMP Antagonist.
Procedure: Cells were prepared for assays by growing cultures for up to 2 weeks (from about 6-20 passages). A vial of frozen cells was thawed in a water bath held at 37° C. The cells were then transferred into a 50 ml tube with 10 ml growth media. The vial was rinsed with growth media and the contents transferred to the 50 ml tube. The 50 ml tube was centrifuged at 1200 rpm for 5 minutes at room temperature. […] When the cells reached about 90% confluence (approximately 3 days between passages), the cells were passaged and used for either the agonist or antagonist assays as described below.
The cells were prepared for Gi/cAMP assays as described above. The assays were performed using a PE Lance Ultra cAMP kit (TRF0263). The cells were grown on 225 mm dishes, then washed once with 1×PBS (Cellgro) before digestion with 2.5 ml 1× Detachment reagent (DRX 92-0009) for about 2 minutes. PBS (20 ml) was then added to the plate, and the cells were transferred to a 50 ml centrifuge tube, and centrifuged at room temperature using BD Dynac III, at 1200 rpm for 5 minutes. […] The plates were then incubated at room temperature for about 30 minutes before addition of Eu-cAMP tracer solution (10 μl, PerkinElmer) and then ULight-anti-cAMP solution (10 μl) to each well.
Setting [5] is: CHO-K1 cells expressing human D2R/β-arrestin, antagonist mode, quinpirole 130 nM.
[6] abbreviates: CHO-K1 cells expressing human D2R/β-arrestin, antagonist mode, 2.5 μM forskolin and 2.7 nM quinpirole.

T1 sequence (P14416 whole entry): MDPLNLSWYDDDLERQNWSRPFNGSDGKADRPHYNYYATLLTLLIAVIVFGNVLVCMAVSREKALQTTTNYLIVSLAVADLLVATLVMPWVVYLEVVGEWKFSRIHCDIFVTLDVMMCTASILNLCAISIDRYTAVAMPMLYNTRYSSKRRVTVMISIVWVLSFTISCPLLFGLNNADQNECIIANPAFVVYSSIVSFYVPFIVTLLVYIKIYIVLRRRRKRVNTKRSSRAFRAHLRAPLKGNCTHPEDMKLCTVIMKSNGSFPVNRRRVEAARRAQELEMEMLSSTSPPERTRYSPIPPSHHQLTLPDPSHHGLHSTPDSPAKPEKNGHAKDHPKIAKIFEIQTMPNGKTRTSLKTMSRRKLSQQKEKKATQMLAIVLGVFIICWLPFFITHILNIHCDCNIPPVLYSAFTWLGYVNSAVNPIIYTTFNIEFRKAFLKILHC

Take `CC(C)Oc1cc(F)ccc1OCCN1CCC(C)(Oc2ccc(Cl)cc2)CC1` [Compound 191, 4-(4-chlorophenoxy)-1-(2-(4-fluoro-2-isopropoxyphenoxy)ethyl)-4-methylpiperidine]: the EC50 in assay [1] was above 30 µM; in assay [2], above 30000 nM. The half-maximal inhibitory concentration (IC50) in assay [3] (setting [5]) was 1000 to 10000 nM; in assay [4] (setting [6]), 100 to 1000 nM.
The matching figures for `CC(C)C1(Oc2ccc(Cl)cc2)CCN(CCOc2ccccc2C(F)(F)F)CC1` [Compound 192, 4-(4-chlorophenoxy)-4-isopropyl-1-(2-(2-(trifluoromethyl)phenoxy)ethyl)piperidine]: above 30 µM, 1000 to 10000 nM, 1000 to 10000 nM and 100 to 1000 nM.
For `C#CC1(Oc2ccc(Cl)cc2)CCN(CCOc2ccccc2C(F)(F)F)CC1` [Compound 193, 4-(4-chlorophenoxy)-4-ethynyl-1-(2-(2-(trifluoromethyl)phenoxy)ethyl)piperidine], in that order: 1 to 10 µM, below 100 nM, 1000 to 10000 nM and above 30000 nM.
For `C#CC1(Oc2ccccc2)CCN(CCOc2ccccc2C(F)(F)F)CC1` [Compound 194, 4-ethynyl-4-phenoxy-1-(2-(2-(trifluoromethyl)phenoxy)ethyl)piperidine], in that order: 0.1 to 1 µM, below 100 nM, 1000 to 10000 nM and above 30000 nM.
Consider `CC1(Oc2ccc(Cl)cc2)CCN(CCn2cccc(C(F)(F)F)c2=O)CC1` [Compound 195, 1-(2-(4-(4-chlorophenoxy)-4-methylpiperidin-1-yl)ethyl)-3-(trifluoromethyl)pyridin-2(1H)-one], for which the EC50 is above 30 µM in assay [1] and above 30000 nM in assay [2]. Further, the IC50 in assay [3] (setting [5]) and in assay [4] (setting [6]) was above 30000 nM each time.
As for `C[C@@]1(O)C[C@H]2CC[C@@H](C1)N2CCOc1ccccc1C(F)(F)F` [Compound 196, (1R,3s,5S)-3-methyl-8-(2-(2-(trifluoromethyl)phenoxy)ethyl)-8-azabicyclo[3.2.1]octan-3-ol], the EC50 in assay [1] is above 30 µM; in assay [2], above 30000 nM. In addition, the IC50 in assay [3] (setting [5]) is 10000 to 30000 nM; in assay [4] (setting [6]), 1000 to 10000 nM.
On to `CNC(=O)C1(C)CCN(CCOc2ccccc2C(F)(F)F)CC1` [Compound 198, N,4-dimethyl-1-(2-(2-(trifluoromethyl)phenoxy)ethyl)piperidine-4-carboxamide], for which the EC50 in assay [1] is above 30 µM; in assay [2] it was above 30000 nM. The IC50 in assay [3] (setting [5]) and in assay [4] (setting [6]) was below 100 nM each time.
`CNC(=O)C1(C)CCN(CCOc2ccccc2)CC1` [Compound 199, N, 4-dimethyl-1-(2-phenoxyethyl)piperidine-4-carboxamide]: the EC50 in assay [1] was above 30 µM; in assay [2], 100 to 1000 nM. Further, the values for the IC50 in assay [3] (setting [5]) and in assay [4] (setting [6]) were 1000 to 10000 nM and above 30000 nM, respectively.
The matching figures for `CNC(=O)C1(C)CCN(CCOc2ccccc2F)CC1` [Compound 200, 1-(2-(2-fluorophenoxy)ethyl)-N,4-dimethylpiperidine-4-carboxamide]: above 30 µM, 100 to 1000 nM, 1000 to 10000 nM and 100 to 1000 nM.
The matching figures for `CNC(=O)C1(C)CCN(CCOc2ccccc2OC)CC1` [Compound 201, 1-(2-(2-methoxyphenoxy)ethyl)-N,4-dimethylpiperidine-4-carboxamide]: above 30 µM, above 30000 nM, 1000 to 10000 nM and 100 to 1000 nM.
The matching figures for `CNC(=O)C1(C)CCN(CC2COc3ccccc3O2)CC1` (centres unmarked) [Compound 202, 1-((2,3-dihydrobenzo[b][1,4]dioxin-2-yl)methyl)-N,4-dimethylpiperidine-4-carboxamide]: above 30 µM, below 100 nM, 100 to 1000 nM and 100 to 1000 nM.
In the case of `CC1(C(=O)NC2CC2)CCN(CC2COc3ccccc3O2)CC1` (centres unmarked) [Compound 203, N-cyclopropyl-1-((2,3-dihydrobenzo[b][1,4]dioxin-2-yl)methyl)-4-methylpiperidine-4-carboxamide], the figures for the EC50 in assay [1] and in assay [2] were above 30 µM and below 100 nM, respectively. The IC50 in assay [3] (setting [5]) lay within 100 to 1000 nM; in assay [4] (setting [6]) it was 1000 to 10000 nM.
For `CC1(C(=O)Nc2ccccc2)CCN(CC2COc3ccccc3O2)CC1` (centres unmarked) [Compound 204, 1-((2,3-dihydrobenzo[b][1,4]dioxin-2-yl)methyl)-4-methyl-N-phenylpiperidine-4-carboxamide], in that order: above 30 µM, 100 to 1000 nM, 1000 to 10000 nM and 100 to 1000 nM.
The matching figures for `CNCC1(C)CCN(C[C@H]2COc3ccccc3O2)CC1` [Compound 207, (S)-1-(1-((2,3-dihydrobenzo[b][1,4]dioxin-2-yl)methyl)-4-methylpiperidin-4-yl)-N-methylmethanamine]: 1 to 10 µM, 1000 to 10000 nM, 1000 to 10000 nM and above 30000 nM.
For `CC1(NC(=O)C(F)(F)F)CCN(C[C@H]2COc3ccccc3O2)CC1` [Compound 212, (S)—N-(1-((2,3-dihydrobenzo[b][1,4]dioxin-2-yl)methyl)-4-methylpiperidin-4-yl)-2,2,2-trifluoroacetamide], in that order: 1 to 10 µM, below 100 nM, 100 to 1000 nM and above 30000 nM.
`CC(=O)N(C)C1(C)CCN(C[C@H]2COc3ccccc3O2)CC1` [Compound 213, (S)—N-(1-((2,3-dihydrobenzo[b][1,4]dioxin-2-yl)methyl)-4-methylpiperidin-4-yl)-N-methylacetamide]: the 50% effective concentration (EC50) in assay [1] was above 30 µM; in assay [2], 1000 to 10000 nM. Moreover, the IC50 in assay [3] (setting [5]) and in assay [4] (setting [6]) was above 30000 nM each time.
Regarding `OCC1(Cc2ccc(Cl)cc2)CCN(CCOc2ccccc2C(F)(F)F)CC1` [Compound 214, (4-(4-chlorobenzyl)-1-(2-(2-(trifluoromethyl)phenoxy)ethyl)piperidin-4-yl)methanol], the concentration for a half-maximal effect (EC50) in assay [1] was above 30 µM; in assay [2], 1000 to 10000 nM. Further, the IC50 in assay [3] (setting [5]) and in assay [4] (setting [6]) was 1000 to 10000 nM each time.
Regarding `CC1(Cc2ccc(Cl)cc2)CCN(CCOc2ccccc2C(F)(F)F)CC1` [Compound 215, 4-(4-chlorobenzyl)-4-methyl-1-(2-(2-(trifluoromethyl)phenoxy)ethyl)piperidine], the figures for the EC50 in assay [1] and in assay [2] were 1 to 10 µM and 1000 to 10000 nM, respectively. Besides, the IC50 in assay [3] (setting [5]) lay within 1000 to 10000 nM; in assay [4] (setting [6]), 10000 to 30000 nM.
On to `FC(F)(F)c1ccccc1OCCN1CCC2(CC1)CC2c1ccc(Cl)cc1` (centres unmarked) [Compound 216, 1-(4-chlorophenyl)-6-(2-(2-(trifluoromethyl)phenoxy)ethyl)-6-azaspiro[2.5]octane], for which the 50% effective concentration (EC50) in assay [1] is above 30 µM; in assay [2], above 30000 nM. The IC50 in assay [3] (setting [5]) was 10000 to 30000 nM; in assay [4] (setting [6]), above 30000 nM.
As to `CN(C1CCCCC1)C1(C)CCN(CCOc2ccccc2C(F)(F)F)CC1` [Compound 217, N-cyclohexyl-N,4-dimethyl-1-(2-(2-(trifluoromethyl)phenoxy)ethyl)piperidin-4-amine], the concentration for a half-maximal effect (EC50) in assay [1] is above 30 µM; in assay [2], 100 to 1000 nM. Further, the IC50 in assay [3] and in assay [4] was 1000 to 10000 nM throughout.
`CC1(C(=O)Nc2ccccc2)CCN(CCOc2ccccc2C(F)(F)F)CC1` [Compound 219, 4-methyl-N-phenyl-1-(2-(2-(trifluoromethyl)phenoxy)ethyl)piperidine-4-carboxamide]: the results for the EC50 in assay [1] and in assay [2] were above 30 µM and above 30000 nM, respectively. Also, the IC50 in assay [3] (setting [5]) and in assay [4] (setting [6]) was 100 to 1000 nM in each case.
On to `CC1(C(=O)Nc2ccccc2)CCN(CCOc2ccccc2F)CC1` [Compound 220, 1-(2-(2-fluorophenoxy)ethyl)-4-methyl-N-phenylpiperidine-4-carboxamide], for which the results for the EC50 in assay [1] and in assay [2] were above 30 µM and 100 to 1000 nM, respectively. In addition, the IC50 in assay [3] (setting [5]) and in assay [4] (setting [6]) was 100 to 1000 nM each time.
On to `OC1(Cc2ccccc2F)CCN(CCOc2ccccc2)C1` (centres unmarked) [Compound 300, 3-(2-fluorobenzyl)-1-(2-phenoxyethyl)pyrrolidin-3-ol, reference compound], for which the results for the EC50 in assay [1] and in assay [2] were above 30 µM and 100 to 1000 nM, respectively. Also, the concentration for half-maximal inhibition (IC50) in assay [3] (setting [5]) is 10000 to 30000 nM; in assay [4] (setting [6]) it was above 30000 nM.
For `COc1ccccc1OCCN1CCC(C)(O)CC1` [Compound 301, reference compound], in that order: above 30 µM, above 30000 nM, 1000 to 10000 nM and 100 to 1000 nM.
For `C#CC1(O)CCN(CCOc2ccccc2C(F)(F)F)CC1` [Compound 302, 4-ethynyl-1-(2-(2-(trifluoromethyl)phenoxy)ethyl)piperidin-4-ol, reference compound], in that order: above 30 µM, above 30000 nM, below 100 nM and below 100 nM.
`CC1(N)CCN(C[C@H]2COc3ccccc3O2)CC1` [Compound 303, reference compound]: the EC50 in assay [1] is above 30 µM; in assay [2] it was 100 to 1000 nM. For the same compound, the IC50 in assay [3] (setting [5]) was 10000 to 30000 nM; in assay [4] (setting [6]), above 30000 nM.
